Reference: the NIST ThermoML archive (doi:10.1016/j.jct.2014.01.030)

Assay: xn = mol fraction of the nth substance listed
Conditions: 101 kPa, Liquid; for speed of sound: Sing-around technique in a fixed-path interferometer; for mass density: Vibrating tube method

CCn1cc[n+](C)c1.COS(=O)(=O)[O-] [1-ethyl-3-methylimidazolium methylsulfate] + CCO
Conditions | mass density, 288.15 K [kg/m3] | mass density, 298.15 K [kg/m3] | mass density, 308.15 K [kg/m3] | speed of sound, 288.15 K [m/s] | speed of sound, 298.15 K [m/s] | speed of sound, 308.15 K [m/s]
x2 = 0 | 1287.57 | 1280.81 | 1273.97 | 1781 | 1756 | 1732
x2 = 0.05 | – | 1273.01 | 1266.14 | – | 1744 | 1720
x2 = 0.0501 | 1279.94 | – | – | 1769 | – | –
x2 = 0.1018 | 1271.31 | – | – | 1756 | – | –
x2 = 0.102 | – | 1264.42 | 1257.55 | – | 1731 | 1707
x2 = 0.197 | – | 1246.51 | 1239.58 | – | 1704 | 1679
x2 = 0.1972 | 1253.48 | – | – | 1728 | – | –
x2 = 0.3098 | 1228.51 | – | – | 1690 | – | –
x2 = 0.31 | – | 1221.47 | 1214.47 | – | 1665 | 1640
x2 = 0.391 | – | 1199.39 | 1192.33 | – | 1630 | 1605
x2 = 0.3913 | 1206.5 | – | – | 1656 | – | –
x2 = 0.503 | 1170.26 | 1163.02 | 1155.75 | 1600 | 1574 | 1549
x2 = 0.6129 | 1125.74 | – | – | 1532 | – | –
x2 = 0.613 | – | 1118.41 | 1111.08 | – | 1506 | 1480
x2 = 0.703 | – | 1071.36 | 1063.86 | – | 1440 | 1413
x2 = 0.7031 | 1078.87 | – | – | 1467 | – | –
x2 = 0.8087 | 1007.23 | – | – | 1376 | – | –
x2 = 0.809 | – | 999.5 | 991.73 | – | 1348 | 1321
x2 = 0.901 | – | 914.27 | 906.19 | – | 1256 | 1226
x2 = 0.9011 | 922.29 | – | – | 1286 | – | –
x2 = 0.948 | – | 859.57 | 851.28 | – | 1206 | 1175
x2 = 0.9482 | 867.78 | – | – | 1238 | – | –
